Experimental data: patent publication US20170355956A1, “COMPOSITIONS FOR INCREASING SURVIVAL OF MOTOR NEURON PROTEIN (SMN) LEVELS IN TARGET CELLS AND METHODS OF USE THEREOF FOR THE TREATMENT OF SPINAL MUSCULAR ATROPHY” (RUTGERS, THE STATE UNIVERSITY OF NEW JERSEY, priority 2014, published 2017)

B1: wild type: wild type DcpS (scavenger decapping enzyme) used to complement DcpS knockdown cells (protein, UniProt Q96C86 2-337, looked up)
m7GpppX diphosphatase: ADAAPQLGKRKRELDVEEAHAASTEEKEAGVGNGTCAPVRLPFSGFRLQKVLRESARDKIIFLHGKVNEASGDGDGEDAVVILEKTPFQVEQVAQLLTGSPELQLQFSNDIYSTYHLFPPRQLNDVKTTVVYPATEKHLQKYLRQDLRLIRETGDDYRNITLPHLESQSLSIQWVYNILDKKAEADRIVFENPDPSDGFVLIPDLKWNQQQLDDLYLIAICHRRGIRSLRDLTPEHLPLLRNILHQGQEAILQRYRMKGDHLRVYLHYLPSYYHLHVHFTALGFEAPGSGVERAHLLAEVIENLECDPRHYQQRTLTFALRADDPLLKLLQEAQQS

Assays:
Format in all cases: cell-based
[1] = system: endogenous DcpS exon 4 splice site; assay: Antisense splice switching of endogenous DcpS, splicing patterns by RT-PCR; conditions: 293T cells
Protocol: FIG. 6. Splice switching of endogenous DcpS intron 4 to the DcpS^In15 alternative site. Vivo-morpholino antisense oligonucleotide (red line) was added to GM03813 cells and DcpS splicing tested. Schematic on lower right depicts the splicing pattern resulting with the indicated concentration of vivo-morpholino and arrows denote the primers used. Endogenous splicing is inhibited and shifted to the alternative site 45nt downstream as well as exon 4 skipping. Bottom panel is a control of exon2-exon3 junction not affected by the oligonucleotide. An exemplary antisense molecule comprises 5′ TTCCAGCCAGAAA CCTTTACCTGCT 3′ (SEQ ID NO: 1). However, antisense oligonucleotides can be designed to hybridize to the any contiguous 20-25 mer present in the DcpS variant sequence shown in FIG. 6.
Shifting of the endogenous DcpS gene to express the DcpS^In15 variant can also be accomplished by antisense oligonucleotide splice switching technology. With this approach, an antisense oligonucleotide complementary to the endogenous splice site is used to block the endogenous site and shift the splicing pattern to the DcpS^In15 pattern in SMA patient cells. The objective is to alter the endogenous DcpS splicing in order to generate sufficient levels of DcpS^In15 thereby elevating SMN2 gene expression and increasing levels of full length SMN protein. 293T cells were treated with 5 μM antisense morpholino oligonucleotide containing a cell permeable guanidinium based dendramer delivery system (vivo-morpholino; GeneTools LLC) for 24 hours and splicing patterns determined by RT-PCR. […] Instead ˜50% of the splicing utilizes the DcpS^In15 splice site 45 nucleotides downstream analogous to that observed in the homozygous DcpS^In15 ID patient cells, and ˜50% results in both sites being blocked and skipping of exon 4 entirely. In the latter case (lower panel in FIG. 6), splicing bypasses exon 4 and goes from exon 3 to exon 5. […] The invention also encompasses optimized oligonucleotide sequences comprising altered nucleotide backbones, and small molecules that can shift splicing to further improve levels of DcpS^In15, thereby elevating SMN2 levels and providing a therapeutic intervention for SMA patients.

fl-SMN2 mRNA = fl-SMN2 mRNA in GM03813 SMA patient cells expressing DcpS variants; conditions: GM03813 cells knocked down for DcpS, stably expressing shRNA-resistant DcpS variant
Protocol: (§1) FIGS. 3A-3C. DcpS^In15 increases fl-SMN2 mRNA and SMN protein in GM03813 SMA patient cells. FIG. 3A. fl-SMN2 mRNA levels were tested in GM03813 cells knocked down for DcpS and stably expressing the indicated shRNA-resistant DcpS variants. […] (Average of three biological replicates) FIG. 3B. Western of SMN and DcpS proteins from cells used in A. (Average of two biological replicates). FIG. 3C. SMN protein levels increase in GM0813 cells expressing DcpS^In15 with a background of endogenous levels of DcpS protein.

SMN protein = assay: Western of SMN protein in GM03813 SMA patient cells expressing DcpS variants; conditions: background of reduced endogenous DcpS
Protocol: as §1

| Molecule | splicing that utilizes the DcpS^In15 splice site 45 nucleotides downstream ([1]; 5 μM, 24 hours, RT-PCR) [%] | splicing with both sites blocked and skipping of exon 4 entirely ([1]; 5 μM, 24 hours, RT-PCR) [%] | utilization of the endogenous exon 4 splice site ([1]; 5 μM, 24 hours, RT-PCR) | level of DcpS^In15 mRNA ([1]; antisense oligonucleotide splice switching) | fl-SMN2 mRNA levels (fl-SMN2 mRNA) | SMN protein level (Western) (SMN protein) |
| --- | --- | --- | --- | --- | --- | --- |
| 5′ TTCCAGCCAGAAA CCTTTACCTGCT 3′ (antisense TTCCAGCCAGAAACCTTTACCTGCT; vivo-morpholino guanidinium dendrimer delivery moiety, chemistry not fully specified) [vivo-morpholino oligonucleotide, antisense morpholino oligonucleotide containing a cell permeable guanidinium based dendramer delivery system (vivo-morpholino; GeneTools LLC)] | ~50 | ~50 | completely inhibits | increased level |  |  |
| B1 |  |  |  |  | not observed | not observed |
